Assay results taken from patent publication US12156880B2, “Heterocyclic RIP1 kinase inhibitors” (Rigel Pharmaceuticals, Inc., priority 2021, dated 2024).
Where two headings read alike, the source gives them in different places.

Tests used:
RIPK1 = target: T1, RIPK1 (Homo sapiens, UniProt Q13546); experiment: RIPK1 ADP-Glo biochemical kinase assay
T1 sequence (Q13546 1-671): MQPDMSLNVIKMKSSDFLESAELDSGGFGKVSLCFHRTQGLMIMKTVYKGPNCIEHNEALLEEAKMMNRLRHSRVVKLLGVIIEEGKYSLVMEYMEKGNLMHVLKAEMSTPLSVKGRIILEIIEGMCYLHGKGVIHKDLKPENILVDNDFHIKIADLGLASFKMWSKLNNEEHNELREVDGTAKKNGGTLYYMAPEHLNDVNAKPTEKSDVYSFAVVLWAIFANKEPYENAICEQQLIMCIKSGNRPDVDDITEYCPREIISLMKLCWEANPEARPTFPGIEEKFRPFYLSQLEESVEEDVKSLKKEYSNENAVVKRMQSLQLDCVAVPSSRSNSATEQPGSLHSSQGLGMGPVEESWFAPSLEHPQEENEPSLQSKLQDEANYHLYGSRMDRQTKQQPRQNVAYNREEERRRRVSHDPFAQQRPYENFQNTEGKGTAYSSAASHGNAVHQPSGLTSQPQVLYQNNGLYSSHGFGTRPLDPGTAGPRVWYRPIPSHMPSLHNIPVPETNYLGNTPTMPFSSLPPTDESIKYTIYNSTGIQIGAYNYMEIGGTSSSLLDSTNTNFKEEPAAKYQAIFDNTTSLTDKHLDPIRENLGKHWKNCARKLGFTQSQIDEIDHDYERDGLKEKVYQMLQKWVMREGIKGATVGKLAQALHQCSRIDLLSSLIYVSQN
Outline: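 RIPK1 at 31 ng/well in Tris pH 7.4 buffer with MgCl2, BSA, DTT and MnCl2, reacted with compounds (duplicate) for 30 min at 30 °C. ADP formed detected by ADP-Glo: 40 min stop/depletion, then 30 min detection reagent at room temperature; luminescence read.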

L929 cells = experiment: L929 cell necroptosis assay (TNFa + zVAD, CellTiter-Glo recovery); type: cell-based, murine; settings: Mus musculus, L929, 18 h, TNFa 2 ng/mL + zVAD-fmk, read-out: L929-CTG-recovery, L929, TNFa + zVAD (IC50)
Outline: (§1)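 Human U937 (50K/well, 60 uM zVAD-fmk medium, plated same day) or murine L929 (10K/well, plated 18 h, then 40 uM zVAD-fmk medium) were grown in RPMI with 10% FBS. Both were pretreated with compound for 1 h at 37 °C before TNFa at 2 ng/mL final. Viability was read by CellTiter-Glo luminescence after 18 h.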

U937 cells = experiment: U937 cell necroptosis assay (TNFa + zVAD, CellTiter-Glo recovery); type: cell-based; settings: Homo sapiens, U-937, 18 h, TNFa 2 ng/mL + zVAD-fmk, read-out: U937 Zvad TNF CTG Recovery, U937, TNFa + zVAD (IC50)
Outline: as §1

[1] = read-out: RIPK1 ADP-Glo Kinase (IC50)

| SMILES | IC50 (RIPK1; [1]) | IC50 (L929 cells) | IC50 (U937 cells) | IC50 (RIPK1) |
| --- | --- | --- | --- | --- |
| CN1C(=O)[C@@H](NC(=O)n2cc(Cc3cccc(F)n3)cn2)COc2ccc(C#CC(C)(C)C3CCOCC3)cc21 [I-107, (S)-4-((6-Fluoropyridin-2-yl)methyl)-N-(5-methyl-7-(3-methyl-3-(tetrahydro-2H-pyran-4-yl)but-1-yn-1-yl)-4-oxo-2,3,4,5-tetrahydrobenzo[b][1,4]oxazepin-3-yl)-1H-pyrazole-1-carboxamide] | 0.0538 µM | 0.307 µM | 0.002 µM |  |
| CN1C(=O)[C@@H](NC(=O)n2cc(Cc3cccc(F)n3)cn2)COc2ccc(C#CC3COC3)cc21 [I-108, (S)-4-((6-Fluoropyridin-2-yl)methyl)-N-(5-methyl-7-(oxetan-3-ylethynyl)-4-oxo-2,3,4,5-tetrahydrobenzo[b][1,4]oxazepin-3-yl)-1H-pyrazole-1-carboxamide] | 0.088 µM | 2.09 µM | 0.0128 µM |  |
| Cc1cccc(Cc2cnn(C(=O)N[C@H]3COc4ccc(C#CC5COC5)cc4N(C)C3=O)c2)n1 [I-109, (S)—N-(5-Methyl-7-(oxetan-3-ylethynyl)-4-oxo-2,3,4,5-tetrahydrobenzo[b][1,4]oxazepin-3-yl)-4-((6-methylpyridin-2-yl)methyl)-1H-pyrazole-1-carboxamide] | 0.0263 µM | 3.51 µM | 0.188 µM |  |
| CN1C(=O)[C@@H](NC(=O)n2cc(Cc3cccc(F)n3)cn2)CCc2ccc(C#CC3(O)COC3)cc21 [I-113, (S)-4-((6-Fluoropyridin-2-yl)methyl)-N-(8-((3-hydroxyoxetan-3-yl)ethynyl)-1-methyl-2-oxo-2,3,4,5-tetrahydro-1H-benzo[b]azepin-3-yl)-1H-pyrazole-1-carboxamide] | 0.0118 µM | 0.037 µM | 0.0013 µM |  |
| CN1C(=O)[C@@H](NC(=O)n2cc(Cc3cccc(F)n3)cn2)CCc2ccc(C#CC(C)(C)O)cc21 [I-114, (S)-4-((6-Fluoropyridin-2-yl)methyl)-N-(8-(3-hydroxy-3-methylbut-1-yn-1-yl)-1-methyl-2-oxo-2,3,4,5-tetrahydro-1H-benzo[b]azepin-3-yl)-1H-pyrazole-1-carboxamide] | 0.0194 µM | 0.0512 µM | 0.001 µM |  |
| CN1C(=O)[C@@H](NC(=O)n2cc(Cc3cccc(F)n3)cn2)CCc2ccc(C#CC(C)(C)CO)cc21 [I-115, (S)-4-((6-fluoropyridin-2-yl)methyl)-N-(8-(4-hydroxy-3,3-dimethylbut-1-yn-1-yl)-1-methyl-2-oxo-2,3,4,5-tetrahydro-1H-benzo[b]azepin-3-yl)-1H-pyrazole-1-carboxamide] | 0.0283 µM | 0.0385 µM | 0.0005 µM |  |
| CN1C(=O)[C@@H](NC(=O)n2cc(Cc3cccc(F)n3)cn2)CCc2ccc(C#CC3(O)CCOCC3)cc21 [I-116, (S)-4-((6-Fluoropyridin-2-yl)methyl)-N-(8-((4-hydroxytetrahydro-2H-pyran-4-yl)ethynyl)-1-methyl-2-oxo-2,3,4,5-tetrahydro-1H-benzo[b]azepin-3-yl)-1H-pyrazole-1-carboxamide] | 0.0129 µM | 0.0694 µM | 0.0005 µM |  |
| CN1C(=O)[C@@H](NC(=O)n2cc(Cc3cccc(F)n3)cn2)CCc2ccc(C#CC3(O)CCC3)cc21 [I-117, (S)-4-((6-Fluoropyridin-2-yl)methyl)-N-(8-((1-hydroxycyclobutyl)ethynyl)-1-methyl-2-oxo-2,3,4,5-tetrahydro-1H-benzo[b]azepin-3-yl)-1H-pyrazole-1-carboxamide] |  | 0.0131 µM | 0.0012 µM | 0.0123 µM |
| Cc1cccc(Cc2cnn(C(=O)N[C@H]3CCc4ccc(Br)cc4N(C)C3=O)c2)n1 [I-118, (S)—N-(8-Bromo-1-methyl-2-oxo-2,3,4,5-tetrahydro-1H-benzo[b]azepin-3-yl)-4-((6-methylpyridin-2-yl)methyl)-1H-pyrazole-1-carboxamide] | 0.0384 µM | 7.67 µM | 0.256 µM |  |
| Cc1cccc(Cc2cnn(C(=O)N[C@H]3CCc4ccc(C#CC(C)(C)O)cc4N(C)C3=O)c2)n1 [I-119, (S)—N-(8-(3-Hydroxy-3-methylbut-1-yn-1-yl)-1-methyl-2-oxo-2,3,4,5-tetrahydro-1H-benzo[b]azepin-3-yl)-4-((6-methylpyridin-2-yl)methyl)-1H-pyrazole-1-carboxamide] | 0.0171 µM | 0.407 µM | 0.0166 µM |  |
| CN1C(=O)[C@@H](NC(=O)n2cc(Cc3cccc(F)n3)cn2)CCc2c(F)cc(C#CC(C)(C)O)cc21 [I-121, (S)—N-(6-Fluoro-8-(3-hydroxy-3-methylbut-1-yn-1-yl)-1-methyl-2-oxo-2,3,4,5-tetrahydro-1H-benzo[b]azepin-3-yl)-4-((6-fluoropyridin-2-yl)methyl)-1H-pyrazole-1-carboxamide] | 0.0261 µM | 11 µM | 0.174 µM |  |
| CN1C(=O)[C@@H](NC(=O)n2cc(Cc3cccc(F)n3)cn2)CCc2c(F)cc(C#CC(C)(C)CO)cc21 [I-122, (S)—N-(6-Fluoro-8-(4-hydroxy-3,3-dimethylbut-1-yn-1-yl)-1-methyl-2-oxo-2,3,4,5-tetrahydro-1H-benzo[b]azepin-3-yl)-4-((6-fluoropyridin-2-yl)methyl)-1H-pyrazole-1-carboxamide] | 0.0325 µM | 8.67 µM | 0.0974 µM |  |
| CN1C(=O)[C@@H](NC(=O)c2cc(Cc3csc(C(F)(F)F)n3)ccn2)COc2ccc(C#CC(C)(C)O)cc21 [I-123, (S)—N-(7-(3-hydroxy-3-methylbut-1-yn-1-yl)-5-methyl-4-oxo-2,3,4,5-tetrahydrobenzo[b][1,4]oxazepin-3-yl)-4-((2-(trifluoromethyl)thiazol-4-yl)methyl)picolinamide] | 0.02 µM | 0.853 µM | 0.0978 µM |  |
| CN1C(=O)[C@@H](NC(=O)c2cc(Cc3csc(C(F)(F)F)n3)ccn2)COc2ccc(C#CC3(O)COC3)cc21 [I-124, (S)—N-(7-((3-hydroxyoxetan-3-yl)ethynyl)-5-methyl-4-oxo-2,3,4,5-tetrahydrobenzo[b][1,4]oxazepin-3-yl)-4-((2-(trifluoromethyl)thiazol-4-yl)methyl)picolinamide] | 0.0304 µM | 1.59 µM | 0.113 µM |  |
| CN1C(=O)[C@@H](NC(=O)c2cc(Oc3cccnc3F)ccn2)COc2ccc(C#CC3CCOCC3)cc21 [I-125, (S)-4-((2-fluoropyridin-3-yl)oxy)-N-(5-methyl-4-oxo-7-((tetrahydro-2H-pyran-4-yl)ethynyl)-2,3,4,5-tetrahydrobenzo[b][1,4]oxazepin-3-yl)picolinamide] | 0.0234 µM | 0.0115 µM | 0.0009 µM |  |
| CN1C(=O)[C@@H](NC(=O)c2cc(Oc3cnn(C)c3)ccn2)COc2ccc(C#CC(C)(C)O)cc21 [I-126, (S)—N-(7-(3-hydroxy-3-methylbut-1-yn-1-yl)-5-methyl-4-oxo-2,3,4,5-tetrahydrobenzo[b][1,4]oxazepin-3-yl)-4-((1-methyl-1H-pyrazol-4-yl)oxy)picolinamide] | 0.0153 µM | 0.155 µM | 0.0089 µM |  |
| CN1C(=O)[C@@H](NC(=O)c2cc(Oc3cnn(C)c3)ccn2)COc2ccc(C#CC3(O)COC3)cc21 [I-127, (S)—N-(7-((3-hydroxyoxetan-3-yl)ethynyl)-5-methyl-4-oxo-2,3,4,5-tetrahydrobenzo[b][1,4]oxazepin-3-yl)-4-((1-methyl-1H-pyrazol-4-yl)oxy)picolinamide] | 0.015 µM | 0.198 µM | 0.0067 µM |  |
| Cc1cccc(Oc2ccnc(C(=O)N[C@H]3COc4ccc(C#CC(C)(C)O)cc4N(C)C3=O)c2)n1 [I-130, (S)—N-(7-(3-hydroxy-3-methylbut-1-yn-1-yl)-5-methyl-4-oxo-2,3,4,5-tetrahydrobenzo[b][1,4]oxazepin-3-yl)-4-((6-methylpyridin-2-yl)oxy)picolinamide] | 0.0334 µM | 5.04 µM | 0.311 µM |  |
| Cc1cccc(Oc2ccnc(C(=O)N[C@H]3COc4ccc(C#CC5(O)COC5)cc4N(C)C3=O)c2)n1 [I-131, (S)—N-(7-((3-hydroxyoxetan-3-yl)ethynyl)-5-methyl-4-oxo-2,3,4,5-tetrahydrobenzo[b][1,4]oxazepin-3-yl)-4-((6-methylpyridin-2-yl)oxy)picolinamide] | 0.0245 µM | 2.67 µM | 0.263 µM |  |
